Experimental data published in PubChem BioAssay AID1963866 (Molecular Pharmacology Branch, DTP, NCI, 2024).

Test system: PDC KRAS tumor spheroids with HUVEC/MSC, viability
Assay: Anticancer human tumor 349418-098-R-PDC patient-derived lung adenocarcinoma cell line growth inhibition [KRAS2]
Conditions: for IC50: curve of first compound; for viability, T/C: stronger effect = lower value
Summary of the method: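 Combination screen of spheroid viability in tumor-cell co-cultures with endothelial (HUVEC) and mesenchymal stem cell stroma. Each agent was tested in half-log dilutions, topping at clinical Cmax or at 10 microM without a known Cmax.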
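Further: spheroids exposed to compounds for seven days before readout.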

## CC1OCC2(CCN(c3cnc(Sc4ccnc(N)c4Cl)c(N)n3)CC2)C1N (stereo not given) + COc1cc2nc(C)nc(NC(C)c3cc(N)cc(C(F)(F)F)c3)c2cc1OC1CCOC1
Second compound 0.1 µM
  IC50: > 10 µM
Second compound 0.316 µM
  IC50: > 10 µM
Second compound 1 µM
  IC50: > 10 µM
Second compound 3.16 µM
  IC50: > 10 µM
Second compound 10 µM
  IC50: < 0.0316 µM
Second compound 0.1 µM, first compound 0.0316 µM
  viability, T/C: 101%
Second compound 0.1 µM, first compound 0.1 µM
  viability, T/C: 77.2%
Second compound 0.1 µM, first compound 0.316 µM
  viability, T/C: 54.4%
Second compound 0.1 µM, first compound 1 µM
  viability, T/C: 97.6%
Second compound 0.1 µM, first compound 3.16 µM
  viability, T/C: 85.6%
Second compound 0.1 µM, first compound 10 µM
  viability, T/C: 62.7%
Second compound 0.316 µM, first compound 0.0316 µM
  viability, T/C: 114%
Second compound 0.316 µM, first compound 0.1 µM
  viability, T/C: 80.8%
Second compound 0.316 µM, first compound 0.316 µM
  viability, T/C: 54.5%
Second compound 0.316 µM, first compound 1 µM
  viability, T/C: 95.3%
Second compound 0.316 µM, first compound 3.16 µM
  viability, T/C: 95.3%
Second compound 0.316 µM, first compound 10 µM
  viability, T/C: 77.8%
Second compound 1 µM, first compound 0.0316 µM
  viability, T/C: 124%
Second compound 1 µM, first compound 0.1 µM
  viability, T/C: 99.3%
Second compound 1 µM, first compound 0.316 µM
  viability, T/C: 67.7%
Second compound 1 µM, first compound 1 µM
  viability, T/C: 72.1%
Second compound 1 µM, first compound 3.16 µM
  viability, T/C: 80%
Second compound 1 µM, first compound 10 µM
  viability, T/C: 74.1%
Second compound 3.16 µM, first compound 0.0316 µM
  viability, T/C: 93.8%
Second compound 3.16 µM, first compound 0.1 µM
  viability, T/C: 77.7%
Second compound 3.16 µM, first compound 0.316 µM
  viability, T/C: 46%
Second compound 3.16 µM, first compound 1 µM
  viability, T/C: 62.6%
Second compound 3.16 µM, first compound 3.16 µM
  viability, T/C: 86.7%
Second compound 3.16 µM, first compound 10 µM
  viability, T/C: 57.1%
Second compound 10 µM, first compound 0.0316 µM
  viability, T/C: 42.8%
Second compound 10 µM, first compound 0.1 µM
  viability, T/C: 29.8%
Second compound 10 µM, first compound 0.316 µM
  viability, T/C: 18.9%
Second compound 10 µM, first compound 1 µM
  viability, T/C: 24.1%
Second compound 10 µM, first compound 3.16 µM
  viability, T/C: 35.3%
Second compound 10 µM, first compound 10 µM
  viability, T/C: 19.2%
